Data taken from US8138377B2, “Arylbicyclo[3.1.0]hexylamines and methods and compositions for their preparation and use” (DOV Pharmaceutical, Inc., priority 2007, dated 2012).

Legend:
[1] = biological target: T1, norepinephrine (NE) transport (Rattus norvegicus, UniProt Q63380); experiment: Inhibition of [3H]NE uptake in rat hypothalamus synaptosomes; assay type: biochemical
T1 construct: synaptosomal preparations were made from either whole brain (5-HT), striatum (DA) or hypothalamus (NE); from tissue; host or cells: rat hypothalamus synaptosomes
Description: (§1) The effects of arylbicyclo[3.1.0]hexylamines of the invention for inhibiting transport of norepinephrine (NE) and/or dopamine (DA) and/or serotonin (5-HT) were evaluated using preparations of synaptosomes from different regions of the rat brain according to previously-reported techniques.
(§2) Whole brains were obtained from normal rats, and synaptosomal preparations were made from either whole brain (5-HT), striatum (DA) or hypothalamus (NE) by gentle disruption in 10 volumes (w/v) of 0.32 M sucrose (0-4° C.) using a Teflon-glass homogenizer. The homogenate was then centrifuged at 1000×g for 10 min. The supernatant was retained and centrifuged at 23000 g for 20 min. The resulting pellet was gently resuspended in 200 volumes of 0.32 M sucrose (0-4° C.) using a teflon-glass homogenizer. Aliquots (250 μL) of this preparation were added to tubes, along with 0.2 μCi/mL of [^3H]5-HT, [^3H]DA, or [^3H]NE, 200 μL of selected 1-arylbicyclo[3.1.0]hexanamine test compounds (to yield final concentrations of 500 nM) and 1 mL of Krebs-Ringer bicarbonate buffer (pH 7.4). […] At the end of this period, the assay was terminated by rapid filtration over Whatman GF/C glass fiber filters. The filters were rinsed 3 times with 4 ml of Krebs-Ringer bicarbonate buffer (0-4° C.), and the radioactivity retained on the filters was measured by liquid scintillation spectrometry.

[2] = biological target: T2, serotonin (5-HT) transport (Rattus norvegicus, UniProt P31652); experiment: biochemical
T2 construct: synaptosomal preparations were made from either whole brain (5-HT), striatum (DA) or hypothalamus (NE); from tissue; host or cells: rat whole brain synaptosomes
Description: as §1, §2

dopamine (DA) transport = biological target: T3, dopamine (DA) transport (Rattus norvegicus, UniProt P23977); experiment: biochemical
T3 construct: synaptosomal preparations were made from either whole brain (5-HT), striatum (DA) or hypothalamus (NE); from tissue; host or cells: rat striatum synaptosomes
Description: as §1, §2

T1 sequence (Q63380 1-617): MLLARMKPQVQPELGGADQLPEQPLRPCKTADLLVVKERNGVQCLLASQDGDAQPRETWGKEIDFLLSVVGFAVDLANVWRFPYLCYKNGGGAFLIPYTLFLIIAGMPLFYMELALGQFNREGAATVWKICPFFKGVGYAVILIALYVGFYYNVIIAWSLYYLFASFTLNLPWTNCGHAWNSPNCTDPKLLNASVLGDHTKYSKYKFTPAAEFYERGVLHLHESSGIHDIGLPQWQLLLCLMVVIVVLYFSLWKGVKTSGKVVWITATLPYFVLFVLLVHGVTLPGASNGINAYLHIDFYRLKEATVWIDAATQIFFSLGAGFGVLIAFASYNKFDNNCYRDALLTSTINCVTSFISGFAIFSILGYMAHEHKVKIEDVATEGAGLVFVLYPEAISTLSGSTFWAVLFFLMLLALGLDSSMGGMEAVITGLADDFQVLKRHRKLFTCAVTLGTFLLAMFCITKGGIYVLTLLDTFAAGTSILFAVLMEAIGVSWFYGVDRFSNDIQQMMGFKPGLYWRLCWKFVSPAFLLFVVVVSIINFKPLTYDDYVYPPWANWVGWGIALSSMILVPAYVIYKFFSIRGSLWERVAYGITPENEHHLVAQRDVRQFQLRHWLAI
T2 sequence (P31652 whole entry): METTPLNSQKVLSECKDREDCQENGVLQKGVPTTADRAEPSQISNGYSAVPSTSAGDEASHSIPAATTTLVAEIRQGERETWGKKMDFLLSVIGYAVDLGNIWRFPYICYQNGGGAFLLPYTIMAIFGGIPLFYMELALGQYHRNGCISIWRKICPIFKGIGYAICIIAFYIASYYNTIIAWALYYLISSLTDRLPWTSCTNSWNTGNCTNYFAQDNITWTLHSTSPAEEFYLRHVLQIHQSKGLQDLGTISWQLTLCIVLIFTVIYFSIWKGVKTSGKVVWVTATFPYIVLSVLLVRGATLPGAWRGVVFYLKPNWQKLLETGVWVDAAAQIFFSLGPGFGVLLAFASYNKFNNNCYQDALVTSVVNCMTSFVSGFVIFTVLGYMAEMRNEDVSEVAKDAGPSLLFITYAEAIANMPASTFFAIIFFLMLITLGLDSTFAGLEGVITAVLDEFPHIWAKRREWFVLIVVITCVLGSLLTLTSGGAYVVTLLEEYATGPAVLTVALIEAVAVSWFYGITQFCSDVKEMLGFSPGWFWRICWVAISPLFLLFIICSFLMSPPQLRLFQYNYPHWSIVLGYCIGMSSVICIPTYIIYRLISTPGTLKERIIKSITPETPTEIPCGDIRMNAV
T3 sequence (P23977 whole entry): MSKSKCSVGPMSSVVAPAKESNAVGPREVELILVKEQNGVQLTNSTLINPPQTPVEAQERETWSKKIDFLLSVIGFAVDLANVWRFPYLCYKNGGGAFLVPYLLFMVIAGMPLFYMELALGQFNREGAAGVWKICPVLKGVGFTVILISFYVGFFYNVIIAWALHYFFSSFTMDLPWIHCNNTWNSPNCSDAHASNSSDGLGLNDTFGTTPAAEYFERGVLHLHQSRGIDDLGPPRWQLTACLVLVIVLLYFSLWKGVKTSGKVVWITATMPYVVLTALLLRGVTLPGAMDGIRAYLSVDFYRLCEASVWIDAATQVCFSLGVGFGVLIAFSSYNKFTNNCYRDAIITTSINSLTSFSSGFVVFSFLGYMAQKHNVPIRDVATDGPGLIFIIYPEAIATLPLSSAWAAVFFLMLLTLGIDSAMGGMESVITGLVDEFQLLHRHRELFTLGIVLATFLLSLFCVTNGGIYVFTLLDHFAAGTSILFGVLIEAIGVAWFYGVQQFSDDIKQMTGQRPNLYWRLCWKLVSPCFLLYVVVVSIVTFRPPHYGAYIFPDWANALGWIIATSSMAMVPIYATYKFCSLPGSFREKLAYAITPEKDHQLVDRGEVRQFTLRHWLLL

Question: With CNC1CC2CC2(c2cccc3ccccc23)C1 (stereo not drawn) as the molecule, how does the IC50 [1] read?
Answer: 74 nM

Question: What about the inhibition at 0.5 µM ([1]; 500 nM, 20 min, 37° C.) of the same molecule?
Answer: 81%

Question: And the IC50 [2]?
Answer: 76 nM

Question: And the inhibition at 0.5 µM ([2]; read-out: Uptake Inhibition % at 500 nM 5-HT)?
Answer: 82%

Question: What about the IC50 (dopamine (DA) transport) of the same molecule?
Answer: 8730 nM

Question: And the inhibition at 0.5 µM (dopamine (DA) transport; read-out: Uptake Inhibition % at 500 nM DA)?
Answer: 23%
